# Literature values in patent publication US20040049352A1, “Designing modulators for glycosyltransferases” (priority 2000, published 2004).
# Biological target: T1, GlcNAc-T II (Rattus norvegicus, UniProt Q09326)
# T1 sequence (Q09326 1-442): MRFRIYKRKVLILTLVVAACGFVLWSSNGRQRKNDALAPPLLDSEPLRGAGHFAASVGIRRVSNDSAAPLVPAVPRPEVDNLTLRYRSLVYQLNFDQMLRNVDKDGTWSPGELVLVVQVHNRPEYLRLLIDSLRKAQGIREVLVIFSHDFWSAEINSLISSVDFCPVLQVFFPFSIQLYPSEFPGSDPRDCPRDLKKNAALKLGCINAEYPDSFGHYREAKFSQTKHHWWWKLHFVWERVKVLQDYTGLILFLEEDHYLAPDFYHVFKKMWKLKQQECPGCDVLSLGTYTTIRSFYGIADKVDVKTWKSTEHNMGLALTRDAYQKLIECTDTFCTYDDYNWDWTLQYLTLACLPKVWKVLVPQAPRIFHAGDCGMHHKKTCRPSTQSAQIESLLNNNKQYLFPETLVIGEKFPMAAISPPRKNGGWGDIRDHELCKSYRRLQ
# Conditions: inhibition studies
row,SMILES,binding to the enzyme GlcNAc-T II
1,"CC(=O)N[C@@H]1[C@@H](O)[C@H](O)[C@@H](CO)O[C@@H]1O [GlcNAc, 2-acetamido-2-deoxy-α-D-glucopyranose]",neither GlcNAc nor GlcNAc-α-l-phosphate binds
2,CC(=O)N[C@H]1[C@@H](OP(=O)(O)O)O[C@H](CO)[C@@H](O)[C@@H]1O [GlcNAc-α-l-phosphate],neither GlcNAc nor GlcNAc-α-l-phosphate binds
3,CC(=O)N[C@H]1[C@@H](OP(=O)(O)OP(=O)(O)OC[C@H]2O[C@@H](n3ccc(=O)[nH]c3=O)[C@H](O)[C@@H]2O)O[C@H](CO)[C@H](O)[C@@H]1O [UDP-GalNAc],do bind
